Laboratory results as given in patent US5574039A, “Antiproliferative compounds having nitrogen-containing tricyclic ring systems and phenyl substituents” (Agouron Pharmaceuticals, Inc., priority 1994, dated 1996).
Read-outs that look alike come from different tables or passages of the source.

Tests used:
[1] = test system: thymidine kinase deficient human adenocarcinoma line (GC3 /M TK^-); test: cells; assay type: cell-based; details: GC3/MTK-, 120 h, read-out: IC50 GC3-M
[2] = biological target: Candida TS ("CTS") (Candida albicans, UniProt P12461); test: Thymidylate synthase inhibition constant Ki, Candida TS; assay type: biochemical
Procedure: (§1) Thymidylate synthase inhibition constants Ki were determined by the following method. All assays were run at 25° C. and initiated by the addition of three different types of thymidylate synthase ("TS"): (1) Escherichia Coli TS ("ETS"); (2) Candida TS ("CTS"), a fungus; and (3) human TS ("HTS").
(§2) All reaction mixtures contained 50 mM Tris at pH 7.8 (the final pH of the reaction was; 7.6), 10 mM DTT (dithiothreitol), 1 mM EDTA (ethylenediaminetetraacetic acid), 25 mM MgCl2, 15 mM H2 CO (formaldehyde) and 25 microM dUMP. When human TS was assayed, 100 micrograms/ml of BSA (bovine serum albumin) was present in the reactions. The range of THF (Tetrahydrofolate) was 5 to 150 microM (eight concentrations: 5, 6.6, 10, 13, 16, 25, 50 and 150 microM). A standard curve in the absence of inhibitor was run with each experiment. […] Charcoal was used to remove unreacted dUMP from the tritium release reaction mixtures, and the resultant water was counted to determine the extent of reaction.

[3] = biological target: human TS ("HTS") (Homo sapiens, UniProt P04818); test: biochemical
Procedure: as §1
as §2, with “The range of THF (Tetrahydrofolate) was 5 to 150 microM (eight concentrations: 5, 6.6, 10, 13, 16, 25, 50 and 150 microM).” left out

[4] = test system: CCRF-CEM, a human lymphoblastic leukemia line of T-cell origin (ATCC CCL 119); test: cells; assay type: cell-based; details: 120 h, read-out: IC50 (CRFCEM)
[5] = biological target: Escherichia Coli TS ("ETS") (Escherichia coli, UniProt P0A884); test: Thymidylate synthase inhibition constant Ki, Escherichia Coli TS; assay type: biochemical
Procedure: as §1, §2

[6] = test system: L1210 murine leukemia (ATCC CCL 219); test: cells; assay type: cell-based; details: Mus musculus, L1210, 72 h, read-out: IC50 L1210

Candida TS ("CTS"), sequence (P12461 whole entry): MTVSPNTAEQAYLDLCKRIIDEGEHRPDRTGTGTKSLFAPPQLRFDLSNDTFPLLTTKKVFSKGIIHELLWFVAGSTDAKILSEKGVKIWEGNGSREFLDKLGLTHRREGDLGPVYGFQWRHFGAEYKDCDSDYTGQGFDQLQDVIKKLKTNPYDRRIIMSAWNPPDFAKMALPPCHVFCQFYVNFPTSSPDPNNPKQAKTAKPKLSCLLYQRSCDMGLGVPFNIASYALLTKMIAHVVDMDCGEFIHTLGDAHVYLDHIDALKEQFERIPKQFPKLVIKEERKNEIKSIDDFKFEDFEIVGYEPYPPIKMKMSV
Escherichia Coli TS ("ETS"), sequence (P0A884 whole entry): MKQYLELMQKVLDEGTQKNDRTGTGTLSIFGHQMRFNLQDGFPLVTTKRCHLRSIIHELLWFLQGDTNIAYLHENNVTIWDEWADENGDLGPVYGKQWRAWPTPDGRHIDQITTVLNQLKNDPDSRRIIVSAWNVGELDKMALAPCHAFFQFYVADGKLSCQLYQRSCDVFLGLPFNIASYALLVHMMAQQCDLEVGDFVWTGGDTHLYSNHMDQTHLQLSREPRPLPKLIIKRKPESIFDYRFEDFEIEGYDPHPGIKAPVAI
human TS ("HTS"), sequence (P04818 whole entry): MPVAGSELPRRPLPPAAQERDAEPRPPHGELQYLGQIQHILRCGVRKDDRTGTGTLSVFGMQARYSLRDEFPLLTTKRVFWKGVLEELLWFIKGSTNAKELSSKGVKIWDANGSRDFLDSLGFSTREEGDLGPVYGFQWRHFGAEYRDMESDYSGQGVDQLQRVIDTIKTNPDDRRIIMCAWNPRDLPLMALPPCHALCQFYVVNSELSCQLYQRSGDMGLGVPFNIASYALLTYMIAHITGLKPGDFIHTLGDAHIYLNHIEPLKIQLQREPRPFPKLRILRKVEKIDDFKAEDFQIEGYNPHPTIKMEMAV

SMILES	IC50 [1] [µM]	Ki [2] [µM]	Ki [3] [µM]	IC50 [4] [µM]	Ki [5] [µM]	IC50 [6] [µM]	Ki ([2]; read-out: Ki CTS, 25° C., against 5,10-methylene-tetrahydrofolate, 25 microM dUMP) [µM]	Ki ([5]; read-out: Ki ETS, 25° C., against 5,10-methylene-tetrahydrofolate, 25 microM dUMP) [µM]
CN(Cc1ccc(S(=O)(=O)c2ccccc2)cc1)c1ccc2c3c(cccc13)C(=O)N2 [Compound 29]	> 5	–	–	–	–	–	–	–
CCN(Cc1ccc(S(=O)(=O)N2CCNCC2)cc1)c1ccc2c3c(cccc13)C(=S)N2 [Compound 6, N-^6 -Ethyl-N^6 [(4-N,N-piperazinyl)sulfamoyl]benzyl-6-aminobenz[cd]indol-2(1H)-thione]	> 5	23 ± 15	3.4 ± 0.4	3.5	50 ± 9	2.1	–	–
O=C1Nc2ccc(N(CCO)Cc3ccc(S(=O)(=O)N4CCNCC4)cc3)c3cccc1c23 [Compound 16, N-[4-(N,N-Piperazinylsulfamoyl)benzyl]-N-hydroxyethyl-6-aminobenz[cd]indol-2(1H)-one]	> 50	11 ± 7	0.87 ± 0.19	31	14 ± 7	50	–	–
CCCN(Cc1ccc(S(=O)(=O)N2CCNCC2)cc1)c1ccc2c3c(cccc13)C(=O)N2 [Compound 19, N-[4-(N,N-Piperazinylsulfamoyl)benzyl]-N-propyl-6-aminobenz[cd]indol-2(1H)-one]	5.4	> 10	12 ± 4	3.1	> 20	2.9	–	–
CCN(Cc1ccc(S(=O)(=O)c2ccccc2)cc1)c1ccc2c3c(cccc13)C(N)=N2 [Compound 34]	3	0.38 ± 0.11	0.075 ± 0.037	1.25	10 ± 6	0.7	–	–
CSCN(Cc1ccc(S(=O)(=O)c2ccccc2)cc1)c1ccc2c3c(cccc13)C(=O)N2 [Compound 24, N-[4-(Phenylsulfonyl)benzyl]-N-methylthiomethyl-6-aminobenz[cd]indol-2(1H)-one]	> 10	> 1	3.9 ± 1.7	2.8	> 1	2.1	–	–
CCN(Cc1ccc(S(=O)(=O)c2ccccc2)cc1)c1ccc2c3c(cccc13)C(=O)N2 [Compound 8, N-[4-(phenylsulfonyl)benzyl]-N-ethyl-6-aminobenz[cd]indol-2(1H)-one]	> 3.33	> 1	1.2 ± 0.4	> 3.33	> 1	3.05	–	–
CCN(Cc1ccc(S(=O)(=O)c2ccccc2)cc1)c1ccc2c3c(cccc13)CN2 [Compound 41, N-[4-(phenylsulfonyl)benzyl]-N-ethyl-6-amino-dihydrobenz[cd]indole]	–	> 10	12 ± 3	–	> 5	–	–	–
CN(Cc1ccc(CO)c2ccccc12)c1ccc2c3c(cccc13)C(=O)N2 [Compound 31, N-[4-Hydroxymethyl-1-naphthobenzyl]-N-methyl-6-aminobenz[cd]indol-2(1H)-one]	4	–	10 ± 1	3	–	0.8	> 2	> 2
CC(C)N(Cc1ccc(S(=O)(=O)N2CCNCC2)cc1)c1ccc2c3c(cccc13)C(=O)N2 [Compound 22, N-[4-(N,N-piperazinylsulfamoyl)benzyl]-N-isopropyl-6-aminobenz[cd]indol-2(1H)-one]	5.9	43 ± 9	4.9 ± 0.7	6.8	23 ± 7	3.9	–	–
O=C1Nc2ccc(N(CCCO)Cc3ccc(S(=O)(=O)N4CCNCC4)cc3)c3cccc1c23 [Compound 40, N-[4-(N,N-Piperazinylsulfamoyl)benzyl]-N-hydroxypropyl-6-aminobenz[cd]indol-2-(1H)-one]	30	> 10	11 ± 5	15	> 10	21.5	–	–
CN(Cc1ccc2cc(CO)ccc2c1)c1ccc2c3c(cccc13)C(=O)N2 [Compound 47, N-(6-Hydroxymethyl-2-naphthobenzyl)-N-methyl-6-aminobenz[cd]indol-2(1H)-one]	> 4	> 10	20 ± 10	> 4	> 10	1.7	–	–
